Measured values reported in US20240390386A1, “CDK8/19 INHIBITORS FOR PREVENTING DRUG RESISTANCE” (University of South Carolina, priority 2021, published 2024).
Read-outs that look alike come from different tables or passages of the source.

Tests used:
MDA-MB-468 xenografts = settings: for effect on tumor growth: SNX631 350 ppm medicated food
panel of 468 kinases = settings: 2000 nM; cited from earlier work
PEN027 PDX tumors = settings: for effect on event-free survival (KM): 38 days of treatment, event: tumor 2,000 mm^3 or euthanasia; for effect on tumor volume: first 10 days of treatment, everolimus 2 mg/kg daily gavage, SNX631-6 500 ppm food
[1] = everolimus 2 mg/kg daily gavage

Compound	tolerability based on mouse body weights (MDA-MB-468 xenografts; SNX631 350 ppm food, everolimus 2 mg/kg daily gavage)	effect on tumor growth (MDA-MB-468 xenografts; [1])	S(10) S-score (panel of 468 kinases)	S(35) S-score (panel of 468 kinases)	development of resistance (PEN061 PDX TNBC model; continued up to 158 days)	development of in vivo resistance to everolimus (MDA-MB-468 xenografts; 150 days of study, tumor volumes and KM event-free survival (event: 500 mm^3))	duration of full suppression of xenograft growth before resistance (MDA-MB-468 xenografts; [1])	effect on event-free survival (KM) (PEN027 PDX tumors)	effect on tumor volume (PEN027 PDX tumors)	toxicity based on body weight changes (PEN027 PDX tumors; mouse, in vivo)	toxicity based on average mouse body weights (PEN061 PDX TNBC model; SNX631-6 350 ppm food, everolimus 3 mg/kg daily gavage)	effect on tumor growth (PEN061 PDX TNBC model; after 63 days of treatment, SNX631-6 350 ppm food, everolimus 3 mg/kg daily gavage)	toxicity based on body weight changes (PEN027 PDX tumors; surviving mice)
CN(C)C(=O)c1ccc(N2CCCN(c3ccnc4sc(C(N)=O)c(N)c34)CC2)cc1 [SNX631, 3-amino-4-(4-(4 (dimethylcarbamoyl)phenyl)-1,4-diazepan-1-yl)thieno[2,3-b]pyridine-2-carboxamide]	very well tolerated	modest effect on tumor growth	< 0.004	less than 0.02									
CO[C@H]1C[C@@H]2CC[C@@H](C)[C@@](O)(O2)C(=O)C(=O)N2CCCC[C@H]2C(=O)O[C@H]([C@H](C)C[C@@H]2CC[C@@H](OCCO)[C@H](OC)C2)CC(=O)[C@H](C)/C=C(\C)[C@@H](O)[C@@H](OC)C(=O)[C@H](C)C[C@H](C)/C=C/C=C/C=C/1C [everolimus, reference compound]		fully suppressed xenograft growth			many of the tumors treated with everolimus alone developed resistance	all the tumors developed everolimus resistance	~50 days of treatment	strong effect	significantly inhibited tumor volume	lack of significant toxicity			
[2H]C([2H])([2H])N(C(=O)c1ccc(N2CCCN(c3ccnc4sc(C(N)=O)c(N)c34)CC2)cc1)C([2H])([2H])[2H] [SNX631-6, 3-amino-4-(4-(4-(bis(methyl-d3)carbamoyl)phenyl)-1,4-diazepan-1-yl)thieno[2,3-b]pyridine-2-carboxamide]								only a moderate effect on survival	significantly inhibited tumor volume		lack of significant toxicity	strongly inhibited tumor growth	lack of significant toxicity
